The record followed here is patent US6667317B2, “Pharmaceutical combinations for the treatment of stroke and traumatic brain injury” (Pfizer Inc, priority 2000, dated 2003).

Series [1] has as its target T1, NR2B subunit containing NMDA receptor (Rattus norvegicus, UniProt P35439+Q00960).
T1 construct: (+)-(1S, 2S)-1-(4-hydroxy-phenyl)-2-(4-hydroxy4-phenylpiperidino)-1-propanol from rat forebrain membranes; from tissue; host or cells: forebrain membranes of adult male CD rats
Put plainly: Displacement of specific binding of racemic [3H](+)-(1S,2S)-1-(4-hydroxy-phenyl)-2-(4-hydroxy-4-phenylpiperidino)-1-propanol ([3H]CP-101,606) from rat forebrain membranes. The conditions noted are these: ratio of the two binding IC50s; selectivity for NR2B NMDA receptor over α1 adrenergic receptor; greater than three is considered selective. On the procedure:
This affinity is assessed in a radioligand binding assay as described below.
The binding of racemic [^3H] […] Forebrains of adult male CD rats are homogenized in 0.32M sucrose at 4° C. The crude nuclear pellet is removed by centrifugation at 1,000×g for 10 minutes, and the supernatant centrifuged at 17,000×g for 25 minutes. The resulting pellet is resuspended in 5 mM Tris acetate pH 7.4 at 4° C. for 10 minutes to lyse cellular particles and again centrifuged at 17,000×g. The resulting pellet is washed twice in Tris acetate, resuspended at 10 mg protein/ml and stored at −20° C. until use.
For binding assays, membranes are thawed, homogenized, and diluted to 0.5 mg protein/ml with 50 mM Tris HCl, pH 7.4. Compounds under study are added at various concentrations followed by racemic [^3H] […] Following incubation for 20 min at 30° C. in a shaking water bath, samples are filtered onto Whatman GFB glass fiber filters using a MB-48R Cell Harvester (Brandel Research and Development Laboratories, Gaithersburg Md.). Filters are washed for 10 s with ice cold Tris HCl buffer and the radioactivity trapped on the filter quantified by liquid scintillation spectroscopy. […] Specific binding is defined as total binding minus nonspecific binding.
Affinity for the NR^2B subunit containing NMDA receptor is measured as the IC50 for displacement of specific binding of racemic [^3H] […] Affinity for the α1-adrengergic receptor is defined as the IC50 for displacement of specific binding of racemic [^3H]prazosin from rat brain membranes, measured as described by Greengrass and Bremner (Binding Characteristics of [^3H]prazosin to Rat Brain α-Adrenergic Receptors, European Journal of Pharmacology, 55, 323-326, (1979)).

In another series the target is α1 adrenergic receptor. As to the kind of experiment: Displacement of specific binding of [3H]prazosin from rat forebrain membranes. As to conditions: 0.2 nM [3H]prazosin, affinity defined as IC50 for displacement of specific binding. The procedure: Compounds of the formula I have selectivity for NR^2B subunit-containing NMDA receptors over α1-adrengergic receptors. Affinity for the NR^2B subunit containing NMDA receptor is measured as the IC50 for displacement of specific binding of racemic [^3H] (+)-(1S, 2S)-1-(4-hydroxy-phenyl)-2-(4-hydroxy4-phenylpiperidino)-1-propanol from rat forebrain membranes (described above). Affinity for the α1-adrengergic receptor is defined as the IC50 for displacement of specific binding of racemic [^3H]prazosin from rat brain membranes, measured as described by Greengrass and Bremner (Binding Characteristics of [^3H]prazosin to Rat Brain α-Adrenergic Receptors, European Journal of Pharmacology, 55, 323-326, (1979)).
Forebrains of adult male Sprague Dawley rats are homogenized in 20 volumes of ice cold 50 mM Tris/HCl buffer (pH 7.7). The homogenate is centrifuged at 50,000×g for 10 minutes at 4° C. The pellet is resuspended and centrifuged under identical conditions and the final pellet is resuspended in 80 volumes of 50 mM Tris/HCl (pH 8.0) at 4° C.
For binding assays, compounds under study are added at various concentrations to 500 μg membrane protein in 1 ml of 50 mM Tris/HCl buffer, followed by [^3H]prazosin (Amersham, specific activity 33 Ci/mmol, 0.2 nM final concentration). Following incubation for 30 min at 25° C. in a shaking water bath, samples are filtered onto Whatman GFB glass fiber filters using a MB-48R Cell Harvester (Brandel Research and Development Laboratories, Gaithersburg Md.). Filters are washed three times for 10s with ice cold Tris HCl buffer and the radioactivity trapped on the filter quantified by liquid scintillation spectroscopy. Nonspecific binding is determined in parallel incubations containing 100 nM prazosin. Specific binding is defined as total binding minus nonspecific binding.

The term IC50 denotes the concentration that gives 50% inhibition. High values mean weaker potency, low ones greater potency. A word on the melting point: it is the temperature of the solid-liquid transition.

T1 sequence (Q00960 27-1482, other chains not shown): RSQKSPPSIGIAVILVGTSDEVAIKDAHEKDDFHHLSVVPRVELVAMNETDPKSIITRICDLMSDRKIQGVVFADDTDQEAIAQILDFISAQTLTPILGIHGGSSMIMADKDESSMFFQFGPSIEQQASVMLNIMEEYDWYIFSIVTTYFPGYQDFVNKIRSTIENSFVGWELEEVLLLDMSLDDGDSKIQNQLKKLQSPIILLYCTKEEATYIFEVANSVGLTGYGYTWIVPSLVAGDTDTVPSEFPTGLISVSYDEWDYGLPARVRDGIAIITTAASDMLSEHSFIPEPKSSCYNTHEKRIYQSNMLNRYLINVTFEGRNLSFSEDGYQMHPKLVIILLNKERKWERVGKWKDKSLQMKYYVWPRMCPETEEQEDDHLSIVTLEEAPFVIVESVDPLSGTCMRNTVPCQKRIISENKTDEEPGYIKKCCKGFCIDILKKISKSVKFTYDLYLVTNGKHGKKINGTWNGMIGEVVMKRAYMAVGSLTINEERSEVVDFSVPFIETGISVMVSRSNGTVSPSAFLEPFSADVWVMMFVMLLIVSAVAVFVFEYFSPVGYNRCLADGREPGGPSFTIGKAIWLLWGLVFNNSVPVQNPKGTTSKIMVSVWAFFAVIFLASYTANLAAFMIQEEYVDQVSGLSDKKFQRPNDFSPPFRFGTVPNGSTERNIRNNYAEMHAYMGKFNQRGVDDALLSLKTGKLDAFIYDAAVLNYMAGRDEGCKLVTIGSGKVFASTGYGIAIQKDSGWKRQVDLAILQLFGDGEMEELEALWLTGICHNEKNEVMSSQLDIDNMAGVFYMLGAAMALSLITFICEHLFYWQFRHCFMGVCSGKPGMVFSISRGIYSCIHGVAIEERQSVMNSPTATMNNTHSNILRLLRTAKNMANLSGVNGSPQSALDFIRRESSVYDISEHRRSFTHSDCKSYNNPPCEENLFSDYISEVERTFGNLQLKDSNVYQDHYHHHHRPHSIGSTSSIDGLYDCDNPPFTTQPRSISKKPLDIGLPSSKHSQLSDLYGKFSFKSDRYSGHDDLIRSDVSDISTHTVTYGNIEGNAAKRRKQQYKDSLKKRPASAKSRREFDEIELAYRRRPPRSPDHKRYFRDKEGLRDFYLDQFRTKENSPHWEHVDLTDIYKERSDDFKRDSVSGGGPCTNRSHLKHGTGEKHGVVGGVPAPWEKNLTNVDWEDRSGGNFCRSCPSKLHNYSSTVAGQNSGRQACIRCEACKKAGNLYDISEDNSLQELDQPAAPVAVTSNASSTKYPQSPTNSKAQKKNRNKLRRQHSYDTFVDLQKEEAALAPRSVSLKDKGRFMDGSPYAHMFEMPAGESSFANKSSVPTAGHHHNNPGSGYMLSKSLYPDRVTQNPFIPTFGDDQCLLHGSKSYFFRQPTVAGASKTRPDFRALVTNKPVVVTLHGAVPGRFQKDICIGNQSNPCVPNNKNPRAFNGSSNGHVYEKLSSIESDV

As for `COc1cc([C@H](O)[C@H](C)N2CCC(O)(c3ccccc3)CC2)ccc1O` [1S, 2S 1-(4-hydroxy-3-methoxyphenyl)-2-(4-hydroxy-4-phenyl-piperidin-1-yl)-propan-1-ol], the “Ratio [^3H]Prazosin/[^3H](+)-(1S, 2S)-1-(4-hydroxy-phenyl)-2-(4-hydroxy-4-phenylpiperidino)-1-propanol” value (“Ratio” below) in series [1] stood at 86. The IC50 at α1 adrenergic receptor was found to be 8.1 µM. In turn, `Cc1cc([C@@H](O)[C@@H](C)N2CCC(O)(c3ccc(F)cc3)CC2)ccc1O` (relative stereo) [(1R*, 2R*)-1-(4-hydroxy-3-methylphenyl)-2-(4-(4-fluorophenyl)-4-hydroxypiperidin-1-yl)-propan-1-ol-mesylate] displayed an IC50 on α1 adrenergic receptor of 10 µM. Regarding `Oc1ccc2c(c1)OC[C@@H](N1CCC(O)(c3ccc(F)cc3)CC1)[C@H]2O` [(3R,4S)-3-[4-(4-fluorophenyl)-4-hydroxy-piperidin-1-yl]-chroman-4,7-diol], the “Ratio” value in series [1] is on record as “≧555”. The IC50 at α1 adrenergic receptor is over 10 µM. In turn, `Oc1ccc2c(c1)OCC(N1CCC(O)(c3ccc(F)cc3)CC1)[C@H]2O` (stereo in doubt) registered a melting point of 159 to 160 °C.

The molecule `C[C@@H]([C@@H](O)c1ccc(O)cc1)N1CCC(O)(c2ccccc2)CC1` [(1S,2S)-1-(4-hydroxyphenyl)-2-(4-hydroxy-4-phenylpiperidino)-1-propanol] displayed a concentration for half-maximal inhibition (IC50) on α1 adrenergic receptor of 19.5 µM. This lies in the double-digit micromolar range. In the case of `OC(CN1CCC(Cc2ccc(F)cc2)CC1)c1ccc(Cl)cc1` (stereo not drawn) [Eliprodil, reference compound], in series [1], the “Ratio” value came to 2.2. Moreover, the IC50 on α1 adrenergic receptor was determined as 0.98 ± 0.22 µM.
